Reference: paper PMC12226733, “Evolution of iGluR ligand specificity, polyamine regulation, and ion selectivity inferred from a placozoan epsilon receptor” (Communications Biology, 2025)
Positions count from the first letter of the chain named. Values joined by “and” are separate entries in the source; they are usually repeats but may differ in a detail not shown here. Identical values can stand only once. Like-named read-outs stand apart in the source and are kept apart here.

What was measured:
GluE1αA wt = GluE1αA wt (Trichoplax adhaerens, UniProt B3SAW0); conditions: for Normalized current (Inorm) GluE1αA wild type: single recordings and AVG
Description: (§1) To further elucidate the nature of internal polyamine block in GluE1αA, we performed outside-out membrane patch clamp experiments in wildtype and mutant channels. […] Current-voltage (I-V) relationships were converted to conductance-voltage (G-V) plots and fit with a single permeant blocker model to estimate both the dissociation constant for Spm at 0 mV (Kd(0mV)) and the voltage dependency of block, as previously described[46],[47].
(§2) HEK-293T/17 cells (ATCC) were maintained in MEM supplemented with GlutaMAX and 10% fetal bovine serum (FBS) at 37 °C and 5% CO2. […] Transient transfections were carried out 48 h post-plating using the calcium phosphate precipitation method. After 6–8 hours, cells were washed twice with PBS and maintained in fresh medium. Cells transfected with mammalian GluA2 cDNA (plasmid vector described above) were returned to an incubator at 37 °C for 24–48 hours and cells transfected with Epsilon GluE1αA were incubated at 28 °C for 48–72 hours. In cells co-transfected with TARP-γ2, 30 μM NBQX was included in the medium to minimize AMPAR/auxiliary-induced cytotoxicity. All constructs were co-transfected with a plasmid encoding enhanced green fluorescent protein (eGFP) to identify transfected cells. Electrophysiology responses were recorded from outside-out patches excised from transfected cells. Recording pipettes were composed of borosilicate glass (3 to 6 megaohm, King Precision Glass) coated with dental wax to reduce electrical noise. All recordings were performed using Axopatch 200B amplifier (Molecular Devices, LLC). Current records were filtered at 5 or 10 kHz and sampled at 25–50 kHz. Series resistance (3 to 12 megaohms) was compensated by 95%. Recordings were performed at a range of holding potentials from −100 mV to 100 mV to study polyamine block. Data was acquired using pClamp9 software (Molecular Devices, LLC). All experiments were performed at room temperature. All chemicals were purchased from Sigma-Aldrich, unless otherwise indicated. External solution contained (in mM): 150 NaCl, 5 HEPES, 0.1 CaCl2, 0.1 MgCl, and […], pH 7.3–7.4. […] The osmotic pressure of all solutions was adjusted to 295 to 300 mOsm with sucrose. […] Stocks were thawed on the day of the experiment and used to prepared agonist-containing external solutions. Raw data for all electrophysiology experiments are provided in Supplementary Data 3. Current-voltage (I-V) relationships were fit using Origin 7 (OriginLab) using a ninth order polynomial function to estimate the reversal potential (Vrev).
(§3) Agonist-evoked membrane conductance (G) was calculated using the following equation: G=I/(V−Vrev)
(§4) Conductance-voltage (G-V) relationships were fit using Origin 7 (OriginLab) with the single permeant blocker model as done previously[46]: G=Gmax/1+[Spm]/Kd Where Gmax is the maximal conductance, [Spm] is the internal Spm concentration, and Kd is the dissociation constant.
(§5) Kd is defined as: Kd=koff+kperm/kon=sumofexitrates/bindingrate
(§6) And redefined as: Kd=g*exp(V/h)+L*exp(V/k) Where h and k are voltage dependencies of g and L, respectively, and at 0 mV: g=koff/konandL=kperm/kon

GluE1αA S642N [1] = molecular target: T1, GluE1αA S642N (Trichoplax adhaerens, UniProt B3SAW0, S167N)
T1 sequence (B3SAW0 1-341 S167N): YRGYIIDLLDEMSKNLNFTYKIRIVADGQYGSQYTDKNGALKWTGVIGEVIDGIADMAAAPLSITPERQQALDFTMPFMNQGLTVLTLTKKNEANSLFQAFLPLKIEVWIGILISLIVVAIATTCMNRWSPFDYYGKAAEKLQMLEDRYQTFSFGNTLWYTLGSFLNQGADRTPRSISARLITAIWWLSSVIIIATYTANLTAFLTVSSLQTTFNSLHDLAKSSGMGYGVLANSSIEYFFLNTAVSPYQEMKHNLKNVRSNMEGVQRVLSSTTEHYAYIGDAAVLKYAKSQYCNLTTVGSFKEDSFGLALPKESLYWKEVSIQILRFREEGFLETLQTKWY
Description: as §1, §2, §3, §4, §5, §6

GluE1αA S642Q = molecular target: T2, GluE1αA S642Q (Trichoplax adhaerens, UniProt B3SAW0, S167Q)
T2 sequence (B3SAW0 1-341 S167Q): T1 sequence (B3SAW0 1-341 S167N) with N167Q
Description: as §1, §2, §3, §4, §5, §6

GluE1αA S642R = assay type: cell-based, Trichoplax adhaerens; conditions: […]; for normalized conductance (G-V, Figure 5g), Avg: Na vs Na; for I-V current, Na vs Na, Avg of recordings: Figure 5b
GluE1αA S642N [2] = molecular target: T1, GluE1αA S642N; assay type: cell-based; conditions: for normalized conductance (G-V, Figure 5g), Avg: Na vs Na; for I-V current, Na vs Na, Avg of recordings: Figure 5b

GluE1αA wt, sequence (B3SAW0 1-341): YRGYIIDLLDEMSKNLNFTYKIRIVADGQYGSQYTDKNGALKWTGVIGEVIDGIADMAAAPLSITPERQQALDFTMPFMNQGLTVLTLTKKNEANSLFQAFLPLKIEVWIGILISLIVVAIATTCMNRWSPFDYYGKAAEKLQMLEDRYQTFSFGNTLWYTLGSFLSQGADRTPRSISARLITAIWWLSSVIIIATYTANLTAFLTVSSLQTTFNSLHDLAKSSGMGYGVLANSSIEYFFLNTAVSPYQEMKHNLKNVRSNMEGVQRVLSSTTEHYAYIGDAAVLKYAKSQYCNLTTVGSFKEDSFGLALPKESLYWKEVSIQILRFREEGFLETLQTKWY

NCCCNCCCCNCCCN [spermine]
Normalized current (Inorm) GluE1αA wild type (GluE1αA wt; 50 mV): 0.16 and 0.13 and 0.0847
Normalized current (Inorm) GluE1αA wild type (GluE1αA wt; -100 mV): -1.00
h, voltage dependency of block onset (GluE1αA wt; GluE1αA wt): −18.5 ± 0.6 mV
k, voltage dependency of block relief (GluE1αA wt; GluE1αA wt): 36.5 ± 4.7 mV
Normalized conductance (Gnorm) (GluE1αA S642N [1]; 0 mV, single recordings c1-c7, AVG c8): 0.27 and 0.16 and 0.22
Normalized conductance (Gnorm) (GluE1αA S642N [1]; -80 mV, single recordings c1-c7, AVG c8): 0.79
Normalized current (Inorm) (GluE1αA S642N [1]; -100 mV, single recordings c1-c7, AVG c8): -1.00
h, voltage dependency of block onset (GluE1αA S642N [1]; GluE1αA S642N): −26.4 ± 1.3 mV
k, voltage dependency of block relief (GluE1αA S642N [1]; GluE1αA S642N): 34.9 ± 3.7 mV
Normalized current (Inorm) (GluE1αA S642Q; -100 mV, single recordings c1-c10, AVG c11): -1.00
h, voltage dependency of block onset (GluE1αA S642Q; GluE1αA S642Q): −15.3 ± 0.7 mV
k, voltage dependency of block relief (GluE1αA S642Q; GluE1αA S642Q): 28.3 ± 2.1 mV

[Na+] [Na]
normalized conductance (G-V, Figure 5g), Avg (GluE1αA S642R; Vm 0.00): 0.18
normalized conductance (G-V, Figure 5g), Avg (GluE1αA S642R; Vm 20.00): 0.18
normalized conductance (G-V, Figure 5g), Avg (GluE1αA S642R; Vm 40.00): 0.22
normalized conductance (G-V, Figure 5g), Avg (GluE1αA S642R; Vm 60.00): 0.29
normalized conductance (G-V, Figure 5g), Avg (GluE1αA S642R; Vm 80.00): 0.33
normalized conductance (G-V, Figure 5g), Avg (GluE1αA S642R; Vm -20.00): 0.24
normalized conductance (G-V, Figure 5g), Avg (GluE1αA S642R; Vm -40.00): 0.36
normalized conductance (G-V, Figure 5g), Avg (GluE1αA S642R; Vm -60.00): 0.62
normalized conductance (G-V, Figure 5g), Avg (GluE1αA S642R; Vm -80.00): 1.00
I-V current, Na vs Na, Avg of recordings (GluE1αA S642R; Vm 0.00): 0.00344
I-V current, Na vs Na, Avg of recordings (GluE1αA S642R; Vm 20.00): 0.06
I-V current, Na vs Na, Avg of recordings (GluE1αA S642R; Vm 40.00): 0.13
I-V current, Na vs Na, Avg of recordings (GluE1αA S642R; Vm 60.00): 0.22
I-V current, Na vs Na, Avg of recordings (GluE1αA S642R; Vm 80.00): 0.33
I-V current, Na vs Na, Avg of recordings (GluE1αA S642R; Vm -20.00): -0.07
I-V current, Na vs Na, Avg of recordings (GluE1αA S642R; Vm -40.00): -0.16
I-V current, Na vs Na, Avg of recordings (GluE1αA S642R; Vm -60.00): -0.32
I-V current, Na vs Na, Avg of recordings (GluE1αA S642R; Vm -80.00): -0.59
pNa/pNa (GluE1αA S642N [2]): 1.08
normalized conductance (G-V, Figure 5g), Avg (GluE1αA S642N [2]; Vm 0.00): 0.09
normalized conductance (G-V, Figure 5g), Avg (GluE1αA S642N [2]; Vm 20.00): 0.06
normalized conductance (G-V, Figure 5g), Avg (GluE1αA S642N [2]; Vm 40.00): 0.14
normalized conductance (G-V, Figure 5g), Avg (GluE1αA S642N [2]; Vm 60.00): 0.27
normalized conductance (G-V, Figure 5g), Avg (GluE1αA S642N [2]; Vm 80.00): 0.34
normalized conductance (G-V, Figure 5g), Avg (GluE1αA S642N [2]; Vm -20.00): 0.24
normalized conductance (G-V, Figure 5g), Avg (GluE1αA S642N [2]; Vm -40.00): 0.49
normalized conductance (G-V, Figure 5g), Avg (GluE1αA S642N [2]; Vm -60.00): 0.76
normalized conductance (G-V, Figure 5g), Avg (GluE1αA S642N [2]; Vm -80.00): 1.00
I-V current, Na vs Na, Avg of recordings (GluE1αA S642N [2]; Vm 0.00): -0.00109
I-V current, Na vs Na, Avg of recordings (GluE1αA S642N [2]; Vm 20.00): 0.0153
I-V current, Na vs Na, Avg of recordings (GluE1αA S642N [2]; Vm 40.00): 0.04
I-V current, Na vs Na, Avg of recordings (GluE1αA S642N [2]; Vm 60.00): 0.11
I-V current, Na vs Na, Avg of recordings (GluE1αA S642N [2]; Vm 80.00): 0.22
I-V current, Na vs Na, Avg of recordings (GluE1αA S642N [2]; Vm -20.00): -0.0458
I-V current, Na vs Na, Avg of recordings (GluE1αA S642N [2]; Vm -40.00): -0.16
I-V current, Na vs Na, Avg of recordings (GluE1αA S642N [2]; Vm -60.00): -0.37
I-V current, Na vs Na, Avg of recordings (GluE1αA S642N [2]; Vm -80.00): -0.64
